Reference: patent publication US20240358668A1, “METHODS AND CO[…] AM[…] CARD[…] USING (R)-2-AMINO-3-PH[…]” (AXSOME THERAPEUTICS, INC., priority 2021, published 2024)

How the values were obtained:
Type in all cases: in vivo, human
[1] = 1-year open-label extension (OLE) study: weight change
Description: A 1-year open-label extension (OLE) study was performed with 374 participants to examined whether clinically significant weight loss (≥5%) in this population had favorable effects on biomarkers of cardiovascular risk compared to no such weight loss. The study measured changes in weight and BP (parent study baseline to OLE week 40) and clinical laboratory assessments (OLE baseline to week 40) in participants with narcolepsy (n=124) or OSA (n=250) who received solriamfetol at doses of 75, 150, or 300 mg/d.
Increased prevalence of obesity has been reported in patients with narcolepsy and obstructive sleep apnea (OSA). […] We examined whether clinically significant weight loss (≥5%) in this population had favorable effects on biomarkers of cardiovascular risk compared to no such weight loss.
We evaluated changes in weight and BP (parent study baseline to OLE week 40) and clinical laboratory assessments (OLE baseline to week 40) in participants with narcolepsy (n=124) or OSA (n=250) from the OLE study.

[2] = test system: participants with narcolepsy; test: Study 14-002, 12-week randomized controlled trial: 24-hour ABPM at screening and week 8; conditions: for effect on percentage of participants with a non-dipping BP profile: screening to week 8, any dose studied
Description: (§1) Solriamfetol is a dopamine and norepinephrine reuptake inhibitor indicated to improve wakefulness in adult patients with excessive daytime sleepiness associated with narcolepsy (75-150 mg/d) or obstructive sleep apnea (37.5-150 mg/d). Previous studies reported small mean increases in blood pressure (BP); however, the time course of these effects has not been evaluated. […] These analyses evaluated the effects of solriamfetol treatment on BP using 24-hour ambulatory blood pressure monitoring (ABPM) and on the percentage of narcolepsy patients with a non-dipping BP profile.
Twenty-four-hour ABPM was conducted at baseline and week 8 in a 12-week randomized controlled trial in participants with narcolepsy (n=236). Blood pressure was collected every 30 minutes.

participants with OSA = test: Study 14-003, 12-week randomized controlled trial: 24-hour ABPM at screening and week 8; conditions: for effect on percentage of participants with a non-dipping BP profile: screening to week 8, any dose studied
Description: as §1, with “with” for “with narcolepsy (75-150 mg/d) or”, “(OSA; 37.5-150 mg/d) or narcolepsy (75-150” for “(37.5-150”, “OSA” for “narcolepsy”
Twenty-four-hour ABPM was conducted at baseline and week 8 in a 12-week randomized controlled trial in participants with OSA (n=474). Blood pressure was collected every 30 minutes.

[3] = highest approved dose of 150 mg/d
[4] = 37.5 mg, listed as solriamfetol

## NC(=O)OC[C@H](N)Cc1ccccc1 [Solriamfetol, (R)-2-amino-3-phenylpropyl carbamate]
[1]; 1-year OLE, narcolepsy or OSA, 75 mg/d
  participants with ≥5% weight loss: 4.5%
[1]; 1-year OLE, narcolepsy or OSA, 150 mg/d
  participants with ≥5% weight loss: 17.3%
[1]; 1-year OLE, narcolepsy or OSA, 300 mg/d
  participants with ≥5% weight loss: 32.4%
[1]; of 374 participants, all doses, 34 participants, week 40
  participants with ≥5% weight gain: 9.1 % of total population
[1]; of 374 participants, all doses, 96 participants, week 40
  participants with ≥5% weight loss: 25.7%
[2]; 75 mg
  Mean Change in DBP on ABPM from Screening to Week 8, Mean (SD): 1.4 (5.13) mmHg
  Mean Change in HR on ABPM from Screening to Week 8, Mean (SD): 1.0 (7.95) bpm
  Mean Change in SBP on ABPM from Screening to Week 8, Mean (SD): 1.8 (6.53) mmHg
[2]; 75 mg, listed as solriamfetol
  Mean Change in DBP on ABPM from Screening to Week 8, Mean (SD): 1.4 mmHg
  Mean Change in SBP on ABPM from Screening to Week 8, Mean (SD): 1.8 mmHg
[2]; 150 mg
  Mean Change in DBP on ABPM from Screening to Week 8, Mean (SD): 0.4 (4.46) mmHg
  Mean Change in HR on ABPM from Screening to Week 8, Mean (SD): 0.7 (7.12) bpm
  Mean Change in SBP on ABPM from Screening to Week 8, Mean (SD): −0.5 (5.51) mmHg
[2]; 150 mg, listed as solriamfetol
  Mean Change in DBP on ABPM from Screening to Week 8, Mean (SD): 0.4 mmHg
  Mean Change in SBP on ABPM from Screening to Week 8, Mean (SD): −0.5 mmHg
[2]; 300 mg
  Mean Change in DBP on ABPM from Screening to Week 8, Mean (SD): 3.0 (4.97) mmHg
  Mean Change in HR on ABPM from Screening to Week 8, Mean (SD): 5.3 (7.55) bpm
  Mean Change in SBP on ABPM from Screening to Week 8, Mean (SD): 2.4 (5.97) mmHg
[2]; 300 mg, listed as solriamfetol
  Mean Change in DBP on ABPM from Screening to Week 8, Mean (SD): 3.0 mmHg
  Mean Change in SBP on ABPM from Screening to Week 8, Mean (SD): 2.4 mmHg
[2]; combined solriamfetol, week 8 (baseline 48%)
  percentage of non-dippers (<10% decrease in MAP during sleep): 39%
[2]; [3]
  time course of effects on BP (24-hour ABPM): transient across the day
[2]
  effect on percentage of participants with a non-dipping BP profile: not observed to have an increase
[2]; listed as solriamfetol
  effect on percentage of participants with a non-dipping BP profile: did not increase
Participants with OSA; 37.5 mg
  Mean Change in DBP on ABPM from Screening to Week 8, Mean (SD): 0.8 (6.09) mmHg
  Mean Change in HR on ABPM from Screening to Week 8, Mean (SD): 0.7 (5.57) bpm
  Mean Change in SBP on ABPM from Screening to Week 8, Mean (SD): 0.7 (10.19) mmHg
Participants with OSA; [4]
  Mean Change in DBP on ABPM from Screening to Week 8, Mean (SD): 0.8 mmHg
  Mean Change in SBP on ABPM from Screening to Week 8, Mean (SD): 0.7 mmHg
Participants with OSA; 75 mg
  Mean Change in DBP on ABPM from Screening to Week 8, Mean (SD): 0.7 (6.55) mmHg
  Mean Change in HR on ABPM from Screening to Week 8, Mean (SD): 0.4 (7.70) bpm
  Mean Change in SBP on ABPM from Screening to Week 8, Mean (SD): 2.2 (9.82) mmHg
Participants with OSA; 75 mg, listed as solriamfetol
  Mean Change in DBP on ABPM from Screening to Week 8, Mean (SD): 0.7 mmHg
  Mean Change in SBP on ABPM from Screening to Week 8, Mean (SD): 2.2 mmHg
Participants with OSA; 150 mg
  Mean Change in DBP on ABPM from Screening to Week 8, Mean (SD): −0.2 (5.10) mmHg
  Mean Change in HR on ABPM from Screening to Week 8, Mean (SD): 1.5 (6.53) bpm
  Mean Change in SBP on ABPM from Screening to Week 8, Mean (SD): −0.5 (8.64) mmHg
Participants with OSA; 150 mg, listed as solriamfetol
  Mean Change in DBP on ABPM from Screening to Week 8, Mean (SD): −0.2 mmHg
  Mean Change in SBP on ABPM from Screening to Week 8, Mean (SD): −0.5 mmHg
Participants with OSA; 300 mg
  Mean Change in DBP on ABPM from Screening to Week 8, Mean (SD): 2.5 (8.66) mmHg
  Mean Change in HR on ABPM from Screening to Week 8, Mean (SD): 1.9 (5.56) bpm
  Mean Change in SBP on ABPM from Screening to Week 8, Mean (SD): 2.9 (13.41) mmHg
Participants with OSA; 300 mg, listed as solriamfetol
  Mean Change in DBP on ABPM from Screening to Week 8, Mean (SD): 2.5 mmHg
  Mean Change in SBP on ABPM from Screening to Week 8, Mean (SD): 2.9 mmHg
Participants with OSA; combined solriamfetol, week 8 (baseline 55%)
  percentage of non-dippers (<10% decrease in MAP during sleep): 53%
Participants with OSA; [3]
  time course of effects on BP (24-hour ABPM): transient across the day
Participants with OSA
  effect on percentage of participants with a non-dipping BP profile: not observed to have an increase
Participants with OSA; listed as solriamfetol
  effect on percentage of participants with a non-dipping BP profile: did not increase
